Among the data in US8163740B2, “6-substituted benzoxazines” (Hoffmann-La Roche Inc., priority 2008, dated 2012) are Ki and melting point values, retold here.

Molecules are shown by their SMILES. Like-named read-outs stand apart in the source and are kept apart here.

Data set [1] concerns the target recombinant human 5-HT5A receptor (Homo sapiens, UniProt P47898). Briefly: [3H]LSD radioligand binding assay. A digest of the protocol: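 Membranes from HEK-EBNA cells transiently expressing the receptor, with ~1 nM [3H]LSD in 50 mM Tris, 1 mM EGTA, 10 mM MgCl2, 10 μM pargyline, pH 7.4, SPA bead format. Incubated 120 min RT; nonspecific binding defined with 2 μM methiothepin. 10 concentrations in duplicate; IC50 converted to Ki via Cheng-Prusoff.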

The mark [2] stands for this setting: [3H]LSD (approximately 1 nM), membranes from HEK-EBNA cells transiently expressing 5-HT5A, Ki by Cheng-Prussoff equation, read-out: Ki.

Sequence of recombinant human 5-HT5A receptor (P47898 whole entry): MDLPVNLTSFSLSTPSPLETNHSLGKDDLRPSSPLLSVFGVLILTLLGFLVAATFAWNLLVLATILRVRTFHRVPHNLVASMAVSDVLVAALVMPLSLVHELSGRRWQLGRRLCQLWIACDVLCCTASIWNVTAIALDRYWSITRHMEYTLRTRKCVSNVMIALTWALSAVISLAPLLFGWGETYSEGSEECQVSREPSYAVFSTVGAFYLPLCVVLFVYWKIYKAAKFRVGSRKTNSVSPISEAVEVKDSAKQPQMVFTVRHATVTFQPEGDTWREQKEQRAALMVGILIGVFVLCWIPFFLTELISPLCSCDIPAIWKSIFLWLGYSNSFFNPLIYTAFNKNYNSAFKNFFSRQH

For `COc1cccc2c1C(NC1=Nc3ccc(Br)cc3CO1)CO2` (racemic) [Example 54, rac-(6-Bromo-4H-benzo[d][1,3]oxazin-2-yl)-(4-methoxy-2,3-dihydro-benzofuran-3-yl)-amine], the melting point came out at 132.5 °C. Further, the Ki in data set [1] (setting [2]) is 125 nM.

`COc1cccc2c1C(NC1=Nc3ccc(Br)cc3CO1)CC2` (racemic) [Example 74, rac-(6-Bromo-4H-benzo[d][1,3]oxazin-2-yl)-(7-methoxy-indan-1-yl)-amine] displayed a melting point of 151 °C. In data set [1] (setting [2]), the Ki amounted to 13.8 nM.

Turning to `Cc1nnc(Nc2ccc3c(c2)COC(NC2CCc4cc(F)ccc42)=N3)o1` (racemic) [Example 106, rac-N^2-(5-Fluoro-indan-1-yl)-N^6-(5-methyl-[1,3,4]oxadiazol-2-yl)-4H-benzo[d][1,3]oxazine-2,6-diamine], the melting point was determined as 121 °C. In addition, the Ki in data set [1] (setting [2]) stood at 2.94 nM.

As to `COc1cccc2c1C(NC1=Nc3ccc(Nc4nnc(C)o4)cc3CO1)CO2` (racemic) [Example 107, rac-N^2-(4-Methoxy-2,3-dihydro-benzofuran-3-yl)-N^6-(5-methyl-[1,3,4]oxadiazol-2-yl)-4H-benzo[d][1,3]oxazine-2,6-diamine], the melting point came to 191 °C. The Ki in data set [1] (setting [2]) amounted to 10.1 nM.

Take `COc1cccc2c1C(NC1=Nc3ccc(Nc4nnc(C5CC5)o4)cc3CO1)CC2` (racemic) [Example 111, rac-N^6-(5-Cyclopropyl-[1,3,4]oxadiazol-2-yl)-N^2-(7-methoxy-indan-1-yl)-4H-benzo[d][1,3]oxazine-2,6-diamine]: the melting point was 204 °C. Further, in data set [1] (setting [2]), the Ki stood at 1.65 nM.

Molecule `COc1cccc2c1C(NC1=Nc3ccc(Nc4nnc(C(F)(F)F)o4)cc3CO1)CC2` (racemic) [Example 144, rac-N^2-(7-Methoxy-indan-1-yl)-N^6-(5-trifluoromethyl-[1,3,4]oxadiazol-2-yl)-4H-benzo[d][1,3]oxazine-2,6-diamine] had a melting point of 173 °C. Besides, in data set [1] (setting [2]), the Ki stood at 8.44 nM.

On to `COc1cccc2c1C(NC1=Nc3ccc(Nc4nnc(C(F)(F)F)o4)cc3CO1)CO2` (racemic) [Example 145, rac-N^2-(4-Methoxy-2,3-dihydro-benzofuran-3-yl)-N^6-(5-trifluoromethyl-[1,3,4]oxadiazol-2-yl)-4H-benzo[d][1,3]oxazine-2,6-diamine], for which the melting point turned out to be 212 °C. For the same molecule, in data set [1] (setting [2]), the Ki came to 40.2 nM.

The molecule `Fc1ccc2c(c1)CCC2NC1=Nc2ccc(Nc3nnc(C(F)(F)F)o3)cc2CO1` (racemic) [Example 148, rac-N^2-(5-Fluoro-indan-1-yl)-N^6-(5-trifluoromethyl-[1,3,4]oxadiazol-2-yl)-4H-benzo[d][1,3]oxazine-2,6-diamine] came in with a melting point of 142 °C. In data set [1] (setting [2]), the Ki turned out to be 14.1 nM.

Molecule `Brc1ccc2c(c1)COC(N[C@@H]1CCc3ccccc31)=N2` [Example 32, (6-Bromo-4H-benzo[d][1,3]oxazin-2-yl)-(R)-indan-1-yl-amine] displayed a melting point of 123 °C. The Ki in data set [1] (setting [2]) amounted to 25.2 nM.

`COc1cccc2c1C(NC1=Nc3ccc(Nc4nnc(C)o4)cc3CO1)CC2` (centres unmarked) [Example 101, N^2-(7-Methoxy-indan-1-yl)-N^6-(5-methyl-[1,3,4]oxadiazol-2-yl)-4H-benzo[d][1,3]oxazine-2,6-diamine] returned a melting point of 162 °C. The Ki in data set [1] (setting [2]) turned out to be 2.41 nM.

Take `Cc1nnc(Nc2ccc3c(c2)COC(N[C@@H]2CCc4ccccc42)=N3)o1` [Example 118, N^2—(R)-Indan-1-yl-N^6-(5-methyl-[1,3,4]oxadiazol-2-yl)-4H-benzo[d][1,3]oxazine-2,6-diamine]: the melting point is 137 °C. The Ki in data set [1] (setting [2]) was determined as 1.4 nM.

Molecule `N=C(NO)c1ccc2c(c1)COC(N[C@@H]1CCc3ccccc31)=N2` [Example 130, N-Hydroxy-2-((R)-indan-1-ylamino)-4H-benzo[d][1,3]oxazine-6-carboxamidine] returned a melting point of 206 °C. Besides, the Ki in data set [1] (setting [2]) turned out to be 11.6 nM.

Take `Cc1nc(-c2ccc3c(c2)COC(N[C@@H]2CCc4ccccc42)=N3)no1` [Example 133, (R)-Indan-1-yl-[6-(5-methyl-[1,2,4]oxadiazol-3-yl)-4H-benzo[d][1,3]oxazin-2-yl]-amine]: the melting point is 138 °C. For the same molecule, the Ki in data set [1] (setting [2]) was 75.7 nM.

For `FC(F)(F)c1nnc(Nc2ccc3c(c2)COC(N[C@@H]2CCc4ccccc42)=N3)o1` [Example 138, N^2—(R)-Indan-1-yl-N^6-(5-trifluoromethyl-[1,3,4]oxadiazol-2-yl)-4H-benzo[d][1,3]oxazine-2,6-diamine], the melting point amounted to 155 °C. Moreover, the Ki in data set [1] (setting [2]) turned out to be 8.76 nM.

Consider `C(=C\c1ccc2c(c1)COC(N[C@@H]1CCc3ccccc31)=N2)/c1ccccc1` [Example 140, (R)-Indan-1-yl-[6-((E)-styryl)-4H-benzo[d][1,3]oxazin-2-yl]-amine], for which the melting point was 162 °C. Further, the Ki in data set [1] (setting [2]) is 17.6 nM.

Turning to `C(=C\c1ccc2c(c1)COC(N[C@@H]1CCc3ccccc31)=N2)/c1cccnc1` [Example 143, (R)-Indan-1-yl-[6-((E)-2-pyridin-3-yl-vinyl)-4H-benzo[d][1,3]oxazin-2-yl]-amine], the melting point was found to be 132 °C. The Ki in data set [1] (setting [2]) is 7.62 nM.

For `CN1CCN(CC(=O)Nc2ccc3c(c2)COC(NC2CCCCCCC2)=N3)CC1` [Example 156, N-(2-Cyclooctylamino-4H-benzo[d][1,3]oxazin-6-yl)-2-(4-methyl-piperazin-1-yl)-acetamide], the Ki in data set [1] (setting [2]) was determined as 2.16 nM.

Turning to `CN1C2COCC1CC(CC(=O)Nc1ccc3c(c1)COC(NC1CCc4ccccc41)=N3)C2` [Example 157, endo-N-[2-((R)-indan-1-ylamino)-4H-benzo[d][1,3]oxazin-6-yl]-2-(9-methyl-3-oxa-9-aza-bicyclo[3.3.1]non-7-yl)-acetamide], the Ki in data set [1] came to 2.98 nM.

On to `CN1C2COCC1CN(CC(=O)Nc1ccc3c(c1)COC(N[C@@H]1CCc4ccccc41)=N3)C2` [Example 159, N-[2-((R)-Indan-1-ylamino)-4H-benzo[d][1,3]oxazin-6-yl]-2-(9-methyl-3-oxa-7,9-diaza-bicyclo[3.3.1]non-7-yl)-acetamide], for which, in data set [1], the Ki was found to be 18.9 nM.

One may read the Ki as the dissociation constant of the complex between target and ligand, obtained from inhibition or displacement. One may read the melting point as the temperature of the solid-liquid transition.
